Experimental data: the NIST ThermoML archive (doi:10.1016/j.jct.2013.07.008)
Numbers after ± are expanded uncertainties.

How the values were obtained:
[1] = for mass density: 101.33 kPa, Buoyancy - hydrostatic balance; for mass density / surface tension liquid-gas: Liquid; for surface tension liquid-gas: Maximal bubble pressure; for Glass transition temperature: DTA
[2] = refractive index (Na D-line) (dimensionless); details: 101.33 kPa, Liquid, Standard Abbe refractometry

CC(O)C(=O)[O-].CCn1cc[n+](C)c1 [1-ethyl-3-methylimidazolium lactate]
Details	mass density, [1] [kg/m3]	refractive index, [2]	surface tension liquid-gas, [1] [mN/m]
288.15 K	1192.9 ± 1.2	1.5026 ± 0.0005	49.5 ± 0.6
293.15 K	1189.8 ± 1.1	1.5014 ± 0.0005	49.2 ± 0.6
303.15 K	1183.4 ± 1.1	1.4987 ± 0.0005	48.4 ± 0.6
308.15 K	1180.1 ± 1.1	1.4977 ± 0.0005	48 ± 0.6
313.15 K	1176.4 ± 1.1	1.4961 ± 0.0005	47.7 ± 0.6
318.15 K	1173.4 ± 1.1	1.495 ± 0.0005	47.4 ± 0.6
323.15 K	1170.4 ± 1.1	1.4936 ± 0.0005	47 ± 0.6
328.15 K	1167.1 ± 1.1	1.4926 ± 0.0005	46.6 ± 0.6
333.15 K	1163.6 ± 1.1	1.4913 ± 0.0005	46.3 ± 0.6

Details	Glass transition temperature [°C]
[1]	-81.30 ± 2

CC(O)C(=O)[O-].CCCCCn1cc[n+](C)c1 [1-pentyl-3-methylimidazolium lactate]
Details	mass density, [1] [kg/m3]	refractive index, [2]	surface tension liquid-gas, [1] [mN/m]
288.15 K	1112.6 ± 1	1.494 ± 0.0005	43.1 ± 0.5
293.15 K	1109 ± 1	1.4928 ± 0.0005	42.7 ± 0.5
303.15 K	1102.7 ± 1	1.4901 ± 0.0005	42 ± 0.5
308.15 K	1099.4 ± 1	1.4891 ± 0.0005	41.5 ± 0.5
313.15 K	1095.3 ± 1	1.4875 ± 0.0005	41.2 ± 0.5
318.15 K	1092.9 ± 1	1.4864 ± 0.0005	40.9 ± 0.5
323.15 K	1089.9 ± 1	1.485 ± 0.0005	40.5 ± 0.5
328.15 K	1086.4 ± 1	1.4841 ± 0.0005	40.1 ± 0.5
333.15 K	1083.3 ± 1	1.4827 ± 0.0005	39.8 ± 0.5

Details	Glass transition temperature [°C]
[1]	-78.20 ± 2
